In experiment [1] the test system is ERK1/2 phosphorylation of p90RSK in A375 cells. Kind of experiment: Detection of total and phosphor-RSK by MSD ELISA (A375). The settings on record: Homo sapiens, A-375, read-out: ERK1/ERK2 PRSK A375 EC50. It is filed as cell-based. The essentials: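 A375 cells serum-starved overnight in DMEM/0.1% FBS, then treated 2 h at 37° C with compound (1000× DMSO dilutions into medium). Lysates captured on RSK antibody-coated MSD plates; phospho-RSK (Ser380) and total RSK detected with SulfoTag secondary antibodies by electrochemiluminescence.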

The test system of experiment [2] is ERK1/2 phosphorylation of p90RSK in HT29 cells. Briefly: pRSK MSD Assay in HT29 cells. It is filed as cell-based. To be noted: Homo sapiens, HT-29, read-out: ERK1/ERK2 PRSK MSD HT29 EC50. The essentials: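 Serum-starved HT29 cells (0.1% FBS overnight) treated with test compound for 120 min at 37° C, then lysed with protease and phosphatase inhibitors. Phospho-p90RSK quantified by MSD sandwich immunoassay: RSK capture antibody, phospho-RSK detection antibody plus Sulfo-tagged antibody, electrochemiluminescence read.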

pEC50: −log10 of the molar value.

As for `C=CC(=O)Nc1cc(C)ccc1Nc1nc(Nc2cc(OC)nc(N3CC(O)C3)c2)ncc1C(F)(F)F` [Compound I-328, N-(2-((2-((2-(3-hydroxyazetidin-1-yl)-6-methoxypyridin-4-yl)amino)-5-(trifluoromethyl)pyrimidin-4-yl)amino)-5-methylphenyl)acrylamide], the pEC50 in experiment [1] and in experiment [2] was more than 7.00 throughout.
On to `C=CS(=O)(=O)Nc1cc(C)ccc1Nc1nc(Nc2cc(OC)ncc2C)ncc1C(F)(F)F` [Compound I-333, N-(2-((2-((2-methoxy-5-methylpyridin-4-yl)amino)-5-(trifluoromethyl)pyrimidin-4-yl)amino)-5-methylphenyl)ethenesulfonamide], for which the pEC50 in experiment [1] and in experiment [2] was 6.30 to 7.00 throughout.
On to `C=CC(=O)Nc1ccccc1Nc1nc(Nc2cc(F)ccc2C)ncc1C(F)(F)F` [Compound I-285, N-(2-((2-((5-Fluoro-2-methylphenyl)amino)-5-(trifluoromethyl)pyrimidin-4-yl)amino)phenyl)acrylamide], for which the figures for the pEC50 in experiment [1] and in experiment [2] were less than 6.00 and 6.30 to 7.00, respectively.
On to `C=CC(=O)Nc1ccccc1Nc1nc(Nc2cc(OC)ccc2C)ncc1C(F)(F)F` [Compound I-340, N-(2-((2-((5-methoxy-2-methylphenyl)amino)-5-(trifluoromethyl)pyrimidin-4-yl)amino)phenyl)acrylamide], for which the pEC50 in experiment [1] and in experiment [2] was more than 7.00 each time.
Turning to `C=CC(=O)Nc1cc(C)ccc1Nc1nc(Nc2cc(NC3CC3)nc(OC)c2)ncc1C(F)(F)F` [Compound I-337, N-(2-((2-((2-(cyclopropylamino)-6-methoxypyridin-4-yl)amino)-5-(trifluoromethyl)pyrimidin-4-yl)amino)-5-methylphenyl)acrylamide], the pEC50 in experiment [1] and in experiment [2] was more than 7.00 throughout.
As for `C=CC(=O)Nc1ccccc1Nc1nc(Nc2cc(OC)nc(OC)c2)ncc1C(F)(F)F` [Compound I-95, N-(2-((2-((2,6-Dimethoxypyridin-4-yl)amino)-5-(trifluoromethyl)pyrimidin-4-yl)amino)phenyl)acrylamide], the pEC50 in experiment [1] and in experiment [2] was more than 7.00 in each case.
For the compound `C=CC(=O)Nc1cc(C)ccc1Nc1nc(Nc2ccnc(F)c2)ncc1C(F)(F)F` [Compound I-288, N-(2-((2-((2-Fluoropyridin-4-yl)amino)-5-(trifluoromethyl)pyrimidin-4-yl)amino)-5-methylphenyl)acrylamide], the pEC50 in experiment [1] and in experiment [2] was 6.30 to 7.00 throughout.
Take `C=CC(=O)Nc1ccccc1Nc1nc(Nc2cc(OC)nc(N3CCCCC3)c2)ncc1C(F)(F)F` [Compound I-282, N-(2-((2-((2-Methoxy-6-(piperidin-1-yl)pyridin-4-yl)amino)-5-(trifluoromethyl)pyrimidin-4-yl)amino)phenyl)acrylamide]: the pEC50 in experiment [1] is more than 7.00; in experiment [2] it was 6.30 to 7.00.
Turning to `C=CC(=O)Nc1cc(OC)ccc1Nc1nc(Nc2cc(OC)ncc2C)ncc1C(F)(F)F` [Compound I-284, N-(5-Methoxy-2-((2-((2-methoxy-5-methylpyridin-4-yl)amino)-5-(trifluoromethyl)pyrimidin-4-yl)amino)phenyl)acrylamide], the pEC50 in experiment [1] and in experiment [2] was more than 7.00 each time.
As to `C=CC(=O)Nc1cc(C)ccc1Nc1nc(Nc2cc(OC)ncc2C)ncc1C(F)(F)F` [Compound I-90, N-(2-((2-((2-Methoxy-5-methylpyridin-4-yl)amino)-5-(trifluoromethyl)pyrimidin-4-yl)amino)-5-methylphenyl)acrylamide], the pEC50 in experiment [1] and in experiment [2] was more than 7.00 each time.
Regarding `C=CC(=O)Nc1cc(C)ccc1Nc1nc(Nc2cc(OC)nc(N3CCOCC3)c2)ncc1C(F)(F)F` [Compound I-94, N-(2-((2-((2-Methoxy-6-morpholinopyridin-4-yl)amino)-5-(trifluoromethyl)pyrimidin-4-yl)amino)-5-methylphenyl)acrylamide], the pEC50 in experiment [1] was 6.30 to 7.00; in experiment [2], more than 7.00.
On to `C=CC(=O)Nc1cc(C)ccc1Nc1nc(Nc2cc(OC)nc(N(C)CCOC)c2)ncc1C(F)(F)F` [Compound I-336, N-(2-((2-((2-methoxy-6-((2-methoxyethyl)(methyl)amino)pyridin-4-yl)amino)-5-(trifluoromethyl)pyrimidin-4-yl)amino)-5-methylphenyl)acrylamide], for which the figures for the pEC50 in experiment [1] and in experiment [2] were 6.30 to 7.00 and more than 7.00, respectively.
With `C=CC(=O)Nc1ccccc1Nc1nc(Nc2cc(OC)nc(N3CCS(=O)(=O)CC3)c2)ncc1C(F)(F)F` [Compound I-291, N-(2-((2-((2-(1,1-Dioxidothiomorpholino)-6-methoxypyridin-4-yl)amino)-5-(trifluoromethyl)pyrimidin-4-yl)amino)phenyl)acrylamide], the pEC50 in experiment [1] and in experiment [2] was more than 7.00 throughout.
Take `C=CC(=O)Nc1cc(OC)ccc1Nc1nc(Nc2cc(OC)nc(N3CCN(C)CC3)c2)ncc1C(F)(F)F` [Compound I-334, N-(5-methoxy-2-((2-((2-methoxy-6-(4-methylpiperazin-1-yl)pyridin-4-yl)amino)-5-(trifluoromethyl)pyrimidin-4-yl)amino)phenyl)acrylamide]: the pEC50 in experiment [1] and in experiment [2] was more than 7.00 each time.
For `C=CC(=O)Nc1cc(C)ccc1Nc1nc(N[C@H]2CCCN(C(=O)CO)C2)ncc1Cl` [Compound I-140, (S)—N-(2-((5-chloro-2-((1-(2-hydroxyacetyl)piperidin-3-yl)amino)pyrimidin-4-yl)amino)-5-methylphenyl)acrylamide], the pEC50 in experiment [1] and in experiment [2] was more than 7.00 in each case.
Consider `C=CC(=O)Nc1ccccc1Nc1nc(Nc2cc(OC)nc(N3CCCC3)c2)ncc1C(F)(F)F` [Compound I-281, N-(2-((2-((2-Methoxy-6-(pyrrolidin-1-yl)pyridin-4-yl)amino)-5-(trifluoromethyl)pyrimidin-4-yl)amino)phenyl)acrylamide], for which the pEC50 in experiment [1] and in experiment [2] was more than 7.00 each time.
`C=CC(=O)Nc1cc(C(F)(F)F)ccc1Nc1nc(Nc2cc(OC)ncc2C)ncc1C(F)(F)F` [Compound I-323, N-(2-((2-((2-methoxy-5-methylpyridin-4-yl)amino)-5-(trifluoromethyl)pyrimidin-4-yl)amino)-5-(trifluoromethyl)phenyl)acrylamide]: the pEC50 in experiment [1] and in experiment [2] was more than 7.00 throughout.
As for `C=CC(=O)Nc1ccccc1Nc1nc(Nc2cc(C(N)=O)ccc2C)ncc1C(F)(F)F` [Compound I-68, 3-(4-(2-Acrylamidophenylamino)-5-(trifluoromethyl)pyrimidin-2-ylamino)-4-methylbenzamide], the pEC50 in experiment [1] was 6.30 to 7.00; in experiment [2] it was more than 7.00.
`C=CC(=O)Nc1cc(OC)ccc1Nc1nc(N[C@H]2CCCN(C(=O)CO)C2)ncc1C(F)(F)F` [Compound I-64, (S)—N-(2-((2-((1-(2-Hydroxyacetyl)piperidin-3-yl)amino)-5-(trifluoromethyl)pyrimidin-4-yl)amino)-5-methoxyphenyl)acrylamide]: the pEC50 in experiment [1] is 6.30 to 7.00; in experiment [2] it was more than 7.00.
On the same counts, the results for `C=CC(=O)Nc1cc(C)ccc1Nc1nc(Nc2cc(C)nc(OC)c2)ncc1C(F)(F)F` [Compound I-295, N-(2-((2-((2-methoxy-6-methylpyridin-4-yl)amino)-5-(trifluoromethyl)pyrimidin-4-yl)amino)-5-methylphenyl)acrylamide] are more than 7.00 and more than 7.00.
For `C=CC(=O)Nc1cc(C)ccc1Nc1nc(Nc2cc(OC)nc(N(C)C3CC3)c2)ncc1C(F)(F)F` [Compound I-342, N-(2-((2-((2-(cyclopropyl(methyl)amino)-6-methoxypyridin-4-yl)amino)-5-(trifluoromethyl)pyrimidin-4-yl)amino)-5-methylphenyl)acrylamide], in that order: 6.30 to 7.00 and 6.30 to 7.00.
On the same counts, the results for `C=CC(=O)Nc1cc(OC)ccc1Nc1nc(Nc2cc(OC)nc(N3CCN(CC)CC3)c2)ncc1C(F)(F)F` [Compound I-88, N-(2-((2-((2-(4-Ethylpiperazin-1-yl)-6-methoxypyridin-4-yl)amino)-5-(trifluoromethyl)pyrimidin-4-yl)amino)-5-methoxyphenyl)acrylamide] are 6.30 to 7.00 and 6.30 to 7.00.
Consider `C=CC(=O)Nc1cc(C)ccc1Nc1nc(Nc2cc(OC)nc(N3CCN(C)CC3)c2)ncc1C(F)(F)F` [Compound I-325, N-(2-((2-((2-methoxy-6-(4-methylpiperazin-1-yl)pyridin-4-yl)amino)-5-(trifluoromethyl)pyrimidin-4-yl)amino)-5-methylphenyl)acrylamide], for which the pEC50 in experiment [1] and in experiment [2] was 6.30 to 7.00 in each case.
As to `C=CC(=O)Nc1cc(C)ccc1Nc1nc(Nc2cc(OC)ccc2C)ncc1C(F)(F)F` [Compound I-341, N-(2-((2-((5-methoxy-2-methylphenyl)amino)-5-(trifluoromethyl)pyrimidin-4-yl)amino)-5-methylphenyl)acrylamide], the pEC50 in experiment [1] was less than 6.00; in experiment [2], 6.30 to 7.00.
On the same counts, the results for `C=CC(=O)Nc1cc(F)ccc1Nc1nc(Nc2cc(OC)ncc2C)ncc1C(F)(F)F` [Compound I-322, N-(5-fluoro-2-((2-((2-methoxy-5-methylpyridin-4-yl)amino)-5-(trifluoromethyl)pyrimidin-4-yl)amino)phenyl)acrylamide] are more than 7.00 and more than 7.00.
